Reference: US20140186294A1, “PHAGOCYTIC ACTIVITY AS A MARKER OF SYNUCLEINOPATHIC DISEASE” (ELAN PHARMACEUTICALS, INC., priority 2010, published 2014)

How the values were obtained:
microglia [1] = assay: Flow cytometry phagocytosis assay with strepavidin or biotin beads; assay type: cell-based; conditions: 30 minutes pretreatment, beads 90 minutes
Protocol: Phagocytosis assay: 6 μm strepavidin beads or 5.2 μm biotin beads were added to microglia for 90 minutes. Cells were moved to ice and stained with either a biotin or strepavidin labeled antibodies to identify un-ingested beads. To confirm the ability to identify intra-verses extracellular bound beads by flow cytometry microglia were treated with Cytochalasin D for 30 minutes prior to the addition of beads.

wild type microglia = assay: Phagocytosis after INFγ overnight, wild type littermate microglia; assay type: cell-based, mouse; conditions: beads 90 minutes
Source text: (§1) To test a more physiologic system in which altered activation of LRRK2 and elevated synuclein may occur, we tested the effect of INFγ treatment on phagocytosis in wild type and synuclein-overexpressing microglia. As described above INFγ treatment naturally raises LRRK2 levels as well as increased LRRK2 phosphorylation and activity. Using our line 3 heterozygote X heterozygote crosses (generating homozygous alpha synuclein mice) in which, by culturing each pup separately wild type and synuclein overexpressing littermate cultures are generated. Microglia isolated from the various pups were exposed to INFγ overnight and which point […] beads were added for 90 minutes and phagocytosis was assessed while we were still blinded to the genotype of each culture. […] The ability of the environment to impact these pathways may help explain the incomplete penetrance and onset of Parkinson's symptoms observed with various familial forms of PD.

LRRK2 [2] = assay: LRRK2 mRNA, protein and kinase activity in INF-γ treated microglia; assay type: cell-based; conditions: INF-γ treatment of microglia
Source text: FIG. 16: INF-γ treatment of microglia induced LRRK2 mRNA transcript levels and protein levels by about 2 fold.
We have tested the effect of LRRK2 kinase inhibitors on phagocytosis in cells transformed with LRRK2 G2019S. We have a number of compounds known to inhibit LRRK2 kinase activity. Some of these compounds have enantiomers that are known inhibitors of either cFMS or PLK2 inhibitors but have minimal effect on LRRK2. Pairs of enantiomers one of which is known inhibitor of LRRK2 and one of which inhibits cFMS or PLK2 without substantially effect on LRRK2 can be used to measure LRRK2-specific effects on phagocytosis.

microglia [3] = assay: Phagocytosis of 10 micron beads by INFγ treated microglia, with or without LRRK2 inhibitors; assay type: cell-based; conditions: INFγ 24 hr
[4] = system: synuclein overexpressing cells; assay: Phagocytosis after INFγ overnight, synuclein overexpressing microglia; assay type: cell-based, mouse; conditions: beads 90 minutes
Source text: as §1

H4 cells = assay: Bead phagocytosis in H4 cells with tetracycline inducible synuclein transfected with Rab proteins; assay type: cell-based, human; conditions: synuclein overexpressing H4 cells (tetracycline 48 hours), 4 μM beads 90 minutes
Protocol: FIG. 11: Rabs proteins were transfected into a stable H4 cells containing a tetracycline inducible synuclein construct. Cells were treated or untreated with tetracycline for 48 hours and then fed 4 μM beads for 90 minutes and a phagocytic index calculated.
In quantifying phagocytosis in cells overexpressing synuclein we noticed that synuclein translocates to the phagocytic cup and localized with regions of active actin rearrangement. Under resting conditions synuclein resides in the cytoplasm and following 45 and 90 minutes of bead addition synuclein translocates to sites of actin polymerization and bead contact. SNARE complexes are composed of three components, a SNAP, a syntaxin, and a VAMP protein. These three proteins come together and prime vesicles for fusion with the plasma membrane. On fusion vesicles release their contents and SNARE complexes are disassembled by two adaptor proteins, NSF and α-SNAP. Some members from these dissociated complexes recycle back to the cytoplasm via recycling endosomes and can be used to prime subsequent fusion events. All three protein members of the SNARE complex are alpha helices and on assembly form an energy favorable, very unique SDS stable complex. Although these complexes resist SDS dissociation they will dissociate following boiling. Therefore one SNARE complexes can be flowed as SDS stable complexes in boiled and unboiled lysates. We hypothesized that defective vesicle mobilization may be associated with or due to altered SNARE complex formation of SNARE complex. H4 cells transfected with synuclein were fed beads for 15, 45, or 90 minutes, samples were lysed and run on western formation. […] Alterations in SNARE complexes were also observed in microglia isolated from synuclein genomic mice (data not shown). To elucidate how synuclein alters vesicle trafficking and SNARE complex formation/function we assessed interaction of synuclein with components of the SNARE family. […] To test the possibility that molecules which facilitate vesicle movement could overcome the ability of elevated levels of synuclein to block phagocytosis, a stable H4 cell line overexpressing synuclein was transfected with various Rab proteins. We verified that the Rab proteins were overexpressed and phagocytosis was assessed in wild type and synuclein over expressing cells.

LRRK2 [5] = assay: LRRK2 phosphorylation in stimulated murine microglia (PT1967 P-LRRK2 antibody); assay type: cell-based, mouse; conditions: primary microglia stimulated for various times
Protocol: Although neurons express LRRK2, this expression appears to be low relative to that of B-cells and macrophages. […] For example, murine microglia were stimulated with MCSF for various times or […] beads for 30 minutes. LRRK2 phosphorylation was probed with PT1967 P-LRRK2 antibody.

Q: `C=C1[C@@H](C)[C@H]2[C@H](Cc3ccccc3)NC(=O)[C@]23[C@H](OC(C)=O)/C=C/[C@@](C)(O)C(=O)[C@@H](C)C/C=C/[C@H]3[C@@H]1O` [Cytochalasin D] was tested. Which “phagocytosis of 5 and 6 micron beads” value (microglia [1]) did it give?
A: blocked this phagocytosis

Q: For “INFγ: interferon gamma, described as agonist of LRRK2”, which phagocytosis (wild type microglia) is on record?
A: enhanced phagocytosis

Q: And the “induction of LRRK2 mRNA transcript levels” value (LRRK2 [2])?
A: about 2 fold

Q: What about the “induction of LRRK2 protein levels” value (LRRK2 [2]) of the same molecule?
A: about 2 fold

Q: What about the “phagocytosis of 10 micron beads” value (microglia [3]) of the same molecule?
A: increased phagocytosis

Q: And the phagocytosis [4]?
A: even further reduction in phagocytosis

B1: Rab3b: Rab protein (Swiss Prot P20337) overexpressed by transfection in H4 cells (protein, UniProt P20337 2-219, looked up)
Ras-related protein Rab-3B: ASVTDGKTGVKDASDQNFDYMFKLLIIGNSSVGKTSFLFRYADDTFTPAFVSTVGIDFKVKTVYRHEKRVKLQIWDTAGQERYRTITTAYYRGAMGFILMYDITNEESFNAVQDWATQIKTYSWDNAQVILVGNKCDMEEERVVPTEKGQLLAEQLGFDFFEASAKENISVRQAFERLVDAICDKMSDSLDTDPSMLGSSKNTRLSDTPPLLQQNCSC
Q: How did the “phagocytosis (phagocytic index)” value (H4 cells) turn out when B1 was run?
A: rescued synuclein modulation of phagocytosis

Q: And the “phagocytosis (phagocytic index)” value (H4 cells; listed as Rab3B)?
A: restored phagocytosis

B2: Rab11b: Rab protein (Swiss Prot Q15907) overexpressed by transfection in H4 cells (protein, UniProt Q15907 2-215, looked up)
Ras-related protein Rab-11B: GTRDDEYDYLFKVVLIGDSGVGKSNLLSRFTRNEFNLESKSTIGVEFATRSIQVDGKTIKAQIWDTAGQERYRAITSAYYRGAVGALLVYDIAKHLTYENVERWLKELRDHADSNIVIMLVGNKSDLRHLRAVPTDEARAFAEKNNLSFIETSALDSTNVEEAFKNILTEIYRIVSQKQIADRAAHDESPGNNVVDISVPPTTDGQKPNKLQCC
Q: For B2, which “phagocytosis (phagocytic index)” value (H4 cells) is on record?
A: rescued synuclein modulation of phagocytosis

Q: And the “phagocytosis (phagocytic index)” value (H4 cells; listed as Rab11B)?
A: restored phagocytosis

B3: MCSF: stimulus that engages the actin cytoskeleton, used on murine microglia (protein, UniProt P07141 33-552, looked up)
Macrophage colony-stimulating …: KEVSEHCSHMIGNGHLKVLQQLIDSQMETSCQIAFEFVDQEQLDDPVCYLKKAFFLVQDIIDETMRFKDNTPNANATERLQELSNNLNSCFTKDYEEQNKACVRTFHETPLQLLEKIKNFFNETKNLLEKDWNIFTKNCNNSFAKCSSRDVVTKPDCNCLYPKATPSSDPASASPHQPPAPSMAPLAGLAWDDSQRTEGSSLLPSELPLRIEDPGSAKQRPPRSTCQTLESTEQPNHGDRLTEDSQPHPSAGGPVPGVEDILESSLGTNWVLEEASGEASEGFLTQEAKFSPSTPVGGSIQAETDRPRALSASPFPKSTEDQKPVDITDRPLTEVNPMRPIGQTQNNTPEKTDGTSTLREDHQEPGSPHIATPNPQRVSNSATPVAQLLLPKSHSWGIVLPLGELEGKRSTRDRRSPAELEGGSASEGAARPVARFNSIPLTDTGHVEQHEGSSDPQIPESVFHLLVPGIILVLLTVGGLLFYKWKWRSHRDPQTLDSSVGRPEDSSLTQDEDRQVELPV
Q: How did the LRRK2 phosphorylation (LRRK2 [5]) turn out when B3 was run?
A: can be enhanced

B4: INFγ: interferon gamma, described as agonist of LRRK2 (protein, UniProt P01579 24-161, looked up)
Interferon gamma: QDPYVKEAENLKKYFNAGHSDVADNGTLFLGILKNWKEESDRKIMQSQIVSFYFKLFKNFKDDQSIQKSVETIKEDMNVKFFNSNKKKRDDFEKLTNYSVTDLNVQRKAIHELIQVMAELSPAAKTGKRKRSQMLFRG
Q: How did the “LRRK2 kinase activity (LRRK2 phosphorylation, LRRK-tide phosphorylation assay)” value (LRRK2 [2]) turn out when B4 was run?
A: apparent increase in LRRK2 kinase activity
